Test results reported in ChEMBL document CHEMBL4229332, “Novel multi-target azinesulfonamides of cyclic amine derivatives as potential antipsychotics with pro-social and pro-cognitive effects” (Eur J Med Chem, 2018).

Tests used:
[1] = target: T1, 5-hydroxytryptamine receptor 2A (Homo sapiens, UniProt P28223); test: Antagonist activity at human 5-HT2AR expressed in HEK293 cells assessed as inhibition of serotonin-induced calcium flux at 10^-6 M after 30 mins by HTRF method; assay type: functional, cell-based
[2] = target: T2, 5-hydroxytryptamine receptor 1A (Homo sapiens) (UniProt P08908); test: Antagonist activity at human 5-HT1AR expressed in mouse BA/F3 cells assessed as inhibition of serotonin-induced calcium flux by fluorimetric method; assay type: functional, cell-based
T2 sequence (whole entry): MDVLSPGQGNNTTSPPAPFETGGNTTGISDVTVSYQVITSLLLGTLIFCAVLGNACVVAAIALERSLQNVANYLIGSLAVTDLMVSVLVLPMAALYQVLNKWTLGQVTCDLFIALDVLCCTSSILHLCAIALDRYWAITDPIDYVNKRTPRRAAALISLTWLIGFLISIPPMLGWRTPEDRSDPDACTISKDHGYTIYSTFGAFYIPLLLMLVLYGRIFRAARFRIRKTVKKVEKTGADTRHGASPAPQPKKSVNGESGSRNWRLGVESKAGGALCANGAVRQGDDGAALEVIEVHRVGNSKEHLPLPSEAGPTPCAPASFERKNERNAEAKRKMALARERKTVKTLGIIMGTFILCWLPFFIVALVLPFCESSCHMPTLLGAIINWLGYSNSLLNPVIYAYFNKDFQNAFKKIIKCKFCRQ

[3] = target: T3, 5-hydroxytryptamine receptor 7 (Homo sapiens, UniProt P34969); test: Antagonist activity at human 5-HT7R expressed in CHO-K1 cells assessed as inhibition of serotonin-induced cAMP accumulation at 10^-6 M after 30 mins by chemiluminescence-based assay; assay type: functional, cell-based
[4] = target: D(2) dopamine receptor (Homo sapiens) (UniProt P14416); test: Antagonist activity at human D2LR expressed in CHO-K1 cells assessed as inhibition of dopamine-induced calcium flux by fluorimetric method; assay type: functional, cell-based
[5] = target: D(3) dopamine receptor (Homo sapiens) (UniProt P35462); test: Antagonist activity at human D3R expressed in CHO-K1 cells assessed as inhibition of dopamine induced cAMP accumulation at 10^-6 M after 30 mins by HTRF method; assay type: functional, cell-based
[6] = target: T1, 5-hydroxytryptamine receptor 2A; test: Antagonist activity at human 5-HT2AR expressed in HEK293 cells assessed as inhibition of serotonin-induced IP1 accumulation at 10^-6 M by chemiluminescence-based assay; assay type: functional, cell-based
[7] = target: 5-hydroxytryptamine receptor 6 (Homo sapiens, UniProt P50406); test: Antagonist activity at human 5-HT6R expressed in CHO-K1 cells assessed as inhibition of serotonin-induced cAMP accumulation at 10^-6 M by chemiluminescence-based assay; assay type: functional, cell-based
[8] = target: T3, 5-hydroxytryptamine receptor 7; test: Antagonist activity at human 5-HT7R expressed in human DLD1 cells assessed as inhibition of serotonin-induced cAMP accumulation by chemiluminescence-based assay; assay type: functional, cell-based
[9] = target: D(3) dopamine receptor (Homo sapiens) (UniProt P35462); test: Antagonist activity at human D3R expressed in CHO-K1 cells assessed as inhibition of […] cAMP accumulation by chemiluminescence-based assay; assay type: functional, cell-based
[10] = Tmax in Wistar rat plasma at 9 mg/kg per os administered as a single dose by LC-MS/MS analysis; assay type: ADME, organism-based; conditions: po
[11] = Tmax in Wistar rat brain at 9 mg/kg per os administered as a single dose by LC-MS/MS analysis; assay type: ADME, organism-based; conditions: po
Rattus norvegicus [12] = test: Reversal of ketamine-induced cognitive flexibility in ip dosed Sprague-Dawley rat administered 30 mins prior to ketamine administration by attentional set-shifting test; assay type: functional; conditions: read-out: MED
[13] = target: T3, 5-hydroxytryptamine receptor 7; test: Displacement of [3H]LSD from recombinant human 5-HT7R after 120 mins by scintillation counting method
[14] = target: T4, Alpha-1A adrenergic receptor (Homo sapiens) (UniProt P35348); test: Displacement of [3H]-prazosin from human adrenergic alpha1A receptor expressed in CHO cells at 10^-6 M after 60 mins by scintillation counting method relative to control; assay type: cell-based
T4 sequence (whole entry): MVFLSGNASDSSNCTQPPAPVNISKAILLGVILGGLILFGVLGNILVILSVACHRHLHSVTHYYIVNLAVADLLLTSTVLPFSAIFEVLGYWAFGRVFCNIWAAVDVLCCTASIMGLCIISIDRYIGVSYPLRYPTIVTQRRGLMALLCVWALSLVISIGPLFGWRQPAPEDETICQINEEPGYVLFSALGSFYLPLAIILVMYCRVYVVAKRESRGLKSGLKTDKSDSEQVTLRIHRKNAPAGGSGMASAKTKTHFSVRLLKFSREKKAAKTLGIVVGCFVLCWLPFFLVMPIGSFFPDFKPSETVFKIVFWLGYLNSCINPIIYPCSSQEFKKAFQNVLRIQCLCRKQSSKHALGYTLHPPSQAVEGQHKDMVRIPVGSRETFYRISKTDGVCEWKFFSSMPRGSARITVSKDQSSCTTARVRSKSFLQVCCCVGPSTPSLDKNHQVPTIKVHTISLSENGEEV

[15] = target: D(1A) dopamine receptor (Homo sapiens) (UniProt P21728); test: Displacement of [3H]-SCH 23390 from human dopamine D1 receptor expressed in CHO cells at 10^-6 M after 60 mins by scintillation counting method relative to control; assay type: cell-based
[16] = target: D(2) dopamine receptor (Homo sapiens) (UniProt P14416); test: Displacement of [3H]7-OH-DPAT from human recombinant dopamine D2S receptor expressed in CHO cells at 10^-6 M after 60 mins by scintillation counting analysis relative to control; assay type: cell-based
[17] = target: D(3) dopamine receptor (Homo sapiens) (UniProt P35462); test: Displacement of [3H]-methyl-spiperone from human dopamine D3 receptor expressed in CHO cells at 10^-6 M after 60 mins by scintillation counting method relative to control; assay type: cell-based
[18] = target: Histamine H1 receptor (Homo sapiens) (UniProt P35367); test: Displacement of [3H]-pyrilamine from human histamine H1 receptor expressed in HEK293 cells at 10^-6 M after 60 mins by scintillation counting method relative to control; assay type: cell-based
[19] = target: Muscarinic acetylcholine receptor M1 (Homo sapiens) (UniProt P11229); test: Displacement of [3H]-pirenzepine from human muscarinic acetylcholine M1 receptor expressed in CHO cells at 10^-6 M after 60 mins by scintillation counting method relative to control; assay type: cell-based
[20] = target: T2, 5-hydroxytryptamine receptor 1A (Homo sapiens); test: Displacement of [3H]-WAY100635 from recombinant full-length human 5-HT1AR expressed in CHO cells at 10^-6 M after 120 mins by scintillation counting method relative to control; assay type: cell-based
[21] = target: 5-hydroxytryptamine receptor 1D (Rattus norvegicus) (UniProt P28565); test: Displacement of [3H]-serotonin from rat 5-HT1DR expressed in CHO cells at 10^-6 M after 60 mins by scintillation counting analysis relative to control; assay type: cell-based
[22] = target: T1, 5-hydroxytryptamine receptor 2A; test: Displacement of [3H]ketanserin from human recombinant 5-HT2A receptor at 10^-6 M after 60 mins by scintillation counting analysis relative to control
[23] = target: T3, 5-hydroxytryptamine receptor 7; test: Displacement of [3H]LSD from human recombinant 5-HT7 receptor at 10^-6 M after 120 mins by scintillation counting analysis relative to control
[24] = target: 5-hydroxytryptamine receptor 1B (Cricetulus griseus) (UniProt P46636); test: Antagonist activity at 5-HT1BR in CHO cells assessed as inhibition of serotonin-induced response; assay type: functional, cell-based
Rattus norvegicus [25] = test: Toxicity in Wistar rat assessed as increase in prolactin level at 1 to 3 mg/kg, po after 60 mins by ELISA; assay type: organism-based; conditions: in vivo, 1 h

Sequence of D(3) dopamine receptor (Homo sapiens) (P35462 whole entry): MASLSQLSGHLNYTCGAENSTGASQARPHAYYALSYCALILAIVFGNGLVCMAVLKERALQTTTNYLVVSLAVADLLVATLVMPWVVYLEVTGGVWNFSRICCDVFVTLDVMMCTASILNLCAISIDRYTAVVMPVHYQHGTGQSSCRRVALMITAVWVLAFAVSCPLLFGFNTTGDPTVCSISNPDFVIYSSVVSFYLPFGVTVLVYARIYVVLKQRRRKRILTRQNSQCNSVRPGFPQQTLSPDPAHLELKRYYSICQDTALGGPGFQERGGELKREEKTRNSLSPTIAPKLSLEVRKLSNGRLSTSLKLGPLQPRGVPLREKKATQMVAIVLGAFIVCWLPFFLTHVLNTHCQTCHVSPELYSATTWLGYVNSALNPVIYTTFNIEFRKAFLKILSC
T3 sequence (P34969 whole entry): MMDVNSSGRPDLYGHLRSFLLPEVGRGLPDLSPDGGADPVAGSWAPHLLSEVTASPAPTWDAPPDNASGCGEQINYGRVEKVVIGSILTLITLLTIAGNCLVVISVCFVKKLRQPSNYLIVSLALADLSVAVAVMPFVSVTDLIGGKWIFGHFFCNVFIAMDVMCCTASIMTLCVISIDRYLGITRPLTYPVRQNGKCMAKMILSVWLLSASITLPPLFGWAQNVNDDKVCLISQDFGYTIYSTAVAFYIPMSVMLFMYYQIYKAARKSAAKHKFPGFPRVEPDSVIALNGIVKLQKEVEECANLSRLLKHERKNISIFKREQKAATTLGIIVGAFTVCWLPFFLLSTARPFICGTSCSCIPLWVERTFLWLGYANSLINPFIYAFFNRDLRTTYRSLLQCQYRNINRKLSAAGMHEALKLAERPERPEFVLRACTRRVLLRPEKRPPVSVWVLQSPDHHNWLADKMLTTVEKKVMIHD
T1 sequence (P28223 whole entry): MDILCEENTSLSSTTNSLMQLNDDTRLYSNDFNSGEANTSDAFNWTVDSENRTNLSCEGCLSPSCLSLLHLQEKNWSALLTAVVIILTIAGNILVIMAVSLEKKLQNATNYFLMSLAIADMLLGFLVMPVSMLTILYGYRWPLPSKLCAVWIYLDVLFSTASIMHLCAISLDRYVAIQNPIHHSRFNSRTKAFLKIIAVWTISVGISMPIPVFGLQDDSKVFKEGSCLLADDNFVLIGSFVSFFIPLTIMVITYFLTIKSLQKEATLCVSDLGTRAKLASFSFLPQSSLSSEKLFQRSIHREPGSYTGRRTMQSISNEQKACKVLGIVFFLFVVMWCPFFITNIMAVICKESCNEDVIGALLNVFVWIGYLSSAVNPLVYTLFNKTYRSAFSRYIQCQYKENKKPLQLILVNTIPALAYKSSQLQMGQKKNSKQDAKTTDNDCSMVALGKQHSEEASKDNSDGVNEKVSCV
Sequence of D(2) dopamine receptor (Homo sapiens) (P14416 whole entry): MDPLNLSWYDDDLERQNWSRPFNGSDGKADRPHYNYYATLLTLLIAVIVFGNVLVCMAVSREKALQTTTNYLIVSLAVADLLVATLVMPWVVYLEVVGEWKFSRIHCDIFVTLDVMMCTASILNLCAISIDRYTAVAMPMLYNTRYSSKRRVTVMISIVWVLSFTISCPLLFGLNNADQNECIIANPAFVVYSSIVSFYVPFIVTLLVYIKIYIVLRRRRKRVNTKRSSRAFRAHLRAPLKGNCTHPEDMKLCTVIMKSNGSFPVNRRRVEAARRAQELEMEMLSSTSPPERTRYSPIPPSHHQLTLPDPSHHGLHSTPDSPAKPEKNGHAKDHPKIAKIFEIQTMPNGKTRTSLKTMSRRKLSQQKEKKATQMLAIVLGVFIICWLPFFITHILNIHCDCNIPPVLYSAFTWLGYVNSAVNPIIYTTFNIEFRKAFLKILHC
Sequence of Histamine H1 receptor (Homo sapiens) (P35367 whole entry): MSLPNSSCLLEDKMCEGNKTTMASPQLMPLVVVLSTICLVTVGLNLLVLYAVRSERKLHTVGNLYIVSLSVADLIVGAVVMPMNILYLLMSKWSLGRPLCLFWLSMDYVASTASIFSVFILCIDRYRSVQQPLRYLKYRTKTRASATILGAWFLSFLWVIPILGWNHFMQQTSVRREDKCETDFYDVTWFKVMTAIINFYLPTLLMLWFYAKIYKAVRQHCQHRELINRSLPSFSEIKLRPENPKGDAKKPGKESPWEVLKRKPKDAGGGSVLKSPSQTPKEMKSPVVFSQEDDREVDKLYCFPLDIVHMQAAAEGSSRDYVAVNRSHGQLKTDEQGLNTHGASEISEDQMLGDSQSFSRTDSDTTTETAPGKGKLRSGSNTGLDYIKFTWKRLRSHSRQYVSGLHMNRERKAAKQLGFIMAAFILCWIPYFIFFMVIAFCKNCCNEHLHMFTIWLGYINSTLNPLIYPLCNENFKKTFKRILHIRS
Sequence of 5-hydroxytryptamine receptor 1B (Cricetulus griseus) (P46636 whole entry): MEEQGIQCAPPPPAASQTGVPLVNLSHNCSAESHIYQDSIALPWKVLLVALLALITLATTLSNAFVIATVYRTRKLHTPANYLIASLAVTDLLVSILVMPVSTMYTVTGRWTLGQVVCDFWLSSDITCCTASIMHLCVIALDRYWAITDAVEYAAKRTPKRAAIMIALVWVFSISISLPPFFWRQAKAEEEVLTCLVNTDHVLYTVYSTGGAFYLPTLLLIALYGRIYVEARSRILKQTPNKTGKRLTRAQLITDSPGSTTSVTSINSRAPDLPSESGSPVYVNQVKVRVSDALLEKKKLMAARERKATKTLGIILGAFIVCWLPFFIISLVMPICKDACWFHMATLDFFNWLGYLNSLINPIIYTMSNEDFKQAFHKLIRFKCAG
Sequence of 5-hydroxytryptamine receptor 1D (Rattus norvegicus) (P28565 whole entry): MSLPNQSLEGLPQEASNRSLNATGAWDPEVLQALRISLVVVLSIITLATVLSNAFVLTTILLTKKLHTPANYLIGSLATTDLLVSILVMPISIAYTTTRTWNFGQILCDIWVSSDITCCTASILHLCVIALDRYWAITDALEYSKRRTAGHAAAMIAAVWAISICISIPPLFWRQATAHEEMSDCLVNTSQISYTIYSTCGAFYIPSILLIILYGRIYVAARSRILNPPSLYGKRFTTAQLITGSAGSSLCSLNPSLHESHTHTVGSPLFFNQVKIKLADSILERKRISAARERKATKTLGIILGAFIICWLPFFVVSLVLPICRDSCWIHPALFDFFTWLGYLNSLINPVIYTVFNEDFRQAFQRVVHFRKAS
Sequence of 5-hydroxytryptamine receptor 6 (P50406 whole entry): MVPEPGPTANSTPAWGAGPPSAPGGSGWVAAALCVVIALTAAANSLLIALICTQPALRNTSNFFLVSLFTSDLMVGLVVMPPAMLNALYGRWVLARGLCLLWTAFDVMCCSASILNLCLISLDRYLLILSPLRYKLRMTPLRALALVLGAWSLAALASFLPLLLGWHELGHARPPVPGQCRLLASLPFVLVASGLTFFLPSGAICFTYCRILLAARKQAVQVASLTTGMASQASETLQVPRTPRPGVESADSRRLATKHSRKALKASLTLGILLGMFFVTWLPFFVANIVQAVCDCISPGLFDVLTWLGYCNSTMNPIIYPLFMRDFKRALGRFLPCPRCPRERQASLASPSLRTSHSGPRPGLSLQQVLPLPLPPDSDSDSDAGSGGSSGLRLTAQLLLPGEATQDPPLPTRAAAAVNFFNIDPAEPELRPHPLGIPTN
Sequence of D(1A) dopamine receptor (Homo sapiens) (P21728 whole entry): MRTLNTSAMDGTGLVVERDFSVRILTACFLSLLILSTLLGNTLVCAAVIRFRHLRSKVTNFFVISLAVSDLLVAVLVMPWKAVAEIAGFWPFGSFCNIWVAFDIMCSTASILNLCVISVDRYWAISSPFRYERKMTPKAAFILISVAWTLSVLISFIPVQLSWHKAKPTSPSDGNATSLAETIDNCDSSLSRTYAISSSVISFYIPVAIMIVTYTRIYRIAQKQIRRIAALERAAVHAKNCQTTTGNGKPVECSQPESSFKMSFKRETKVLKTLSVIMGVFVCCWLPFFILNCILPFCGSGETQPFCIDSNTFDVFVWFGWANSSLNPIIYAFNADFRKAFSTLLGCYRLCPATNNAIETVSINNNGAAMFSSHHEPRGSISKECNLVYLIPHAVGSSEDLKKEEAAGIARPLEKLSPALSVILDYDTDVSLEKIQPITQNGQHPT
Sequence of Muscarinic acetylcholine receptor M1 (Homo sapiens) (P11229 whole entry): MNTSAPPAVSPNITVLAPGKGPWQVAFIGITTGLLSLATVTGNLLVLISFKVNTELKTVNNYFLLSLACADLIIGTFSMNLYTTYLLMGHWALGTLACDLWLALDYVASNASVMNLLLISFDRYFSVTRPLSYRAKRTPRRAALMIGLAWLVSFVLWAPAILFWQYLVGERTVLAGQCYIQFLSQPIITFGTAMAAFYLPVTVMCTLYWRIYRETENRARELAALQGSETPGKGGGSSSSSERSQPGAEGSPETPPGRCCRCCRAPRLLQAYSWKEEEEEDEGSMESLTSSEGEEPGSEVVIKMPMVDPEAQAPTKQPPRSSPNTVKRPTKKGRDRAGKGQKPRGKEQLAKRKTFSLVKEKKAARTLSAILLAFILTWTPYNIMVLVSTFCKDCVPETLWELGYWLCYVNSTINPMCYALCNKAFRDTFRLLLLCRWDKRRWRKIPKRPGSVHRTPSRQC

Work on O=S(=O)(c1cncc2ccccc12)N1CCC[C@H]1CCN1CCN(c2nsc3ccccc23)CC1 yielded an inhibition [1] of 100%, a Kb [2] of 11 nM and an inhibition [3] of 100%. It also gave a Kb [4] of 0.42 nM and an inhibition [5] of 100%.
In the case of O=S(=O)(c1cncc2ccccc12)N1CCC[C@H]1CCN1CCN(c2cccc3sccc23)CC1, the inhibition [6] is reported as 100%, the inhibition [7] is reported as 23% and the Kb [8] is reported as 3.4 nM. It also gave a Kb [9] of 92 nM, a Tmax [10] of 10 min and a Tmax [11] of 60 min. For the same molecule, the minimal effective dose (Rattus norvegicus [12]) was 1 mg/kg, the Ki [13] was 19 nM and the inhibition [14] was 94%. The inhibition [15] was 10%, the inhibition [16] was 100% and the inhibition [17] was 98%. It also gave an inhibition [18] of 96%, an inhibition [19] of 6% and an inhibition [20] of 100%. For the same molecule, the inhibition [21] was 95%, the inhibition [22] was 100% and the inhibition [23] was 100%. For the same molecule, the Kb [24] was 210 nM and the Activity (Rattus norvegicus [25]) was “Non-Toxic”.
